Source: patent US20240116896A1 (ATAI Life Sciences AG, priority 2022, published 2024)
pEC50: −log10 of the molar value.

Experiments:
[1] = target: 5-HT2A (Homo sapiens, UniProt P28223); test: IPOne (IP1 HTRF) assay, CHO-K1 cells expressing human 5-HT2A; assay type: cell-based; design: expressed in transfected cells; host or cells: CHO-K1; conditions: for pEC50: CHO-K1, human 5-HT2A; for activation at 0.3 µM / activation at 30 µM: CHO-K1, percentage of reference agonist α-Me-5-HT at its EC100
Procedure: (§1) IPOne assays were performed using stably-transfected cell lines (CHO-K1) expressing human 5-HT2A or 5-HT2B receptors. Upon activation of these receptors, Gq-mediated myo-Inositol 1 phosphate (IP1) production is detected by a Homogeneous Time-Resolved Fluorescence (HTRF) competitive immunoassay, whereby an IP1 analog coupled to a fluorophore (acceptor) competes with endogenous IP1 for binding to a labeled anti-IP1 antibody (donor). The resulting signal is inversely proportional to the concentration of IP1 in the sample. Cells were incubated with an IP1 inhibitor (to prevent degradation and allow detection) and either reference compound or test compound. α-Me-5-HT was used as the assay reference agonist. Activation of 5-HT2A or 5-HT2B receptors was measured via accumulation of IP1 detected by HTRF. Agonist activity of test compounds was expressed as a percentage of the activity of the reference agonist at its EC100 concentration.

[2] = target: 5-HT2B (Homo sapiens, UniProt P41595); test: IPOne (IP1 HTRF) assay, CHO-K1 cells expressing human 5-HT2B; assay type: cell-based; design: expressed in transfected cells; host or cells: CHO-K1; conditions: for pEC50: CHO-K1, human 5-HT2B; for activation at 0.3 µM / activation at 30 µM: CHO-K1, percentage of reference agonist α-Me-5-HT at its EC100
Sequence of 5-HT2B (P41595 whole entry): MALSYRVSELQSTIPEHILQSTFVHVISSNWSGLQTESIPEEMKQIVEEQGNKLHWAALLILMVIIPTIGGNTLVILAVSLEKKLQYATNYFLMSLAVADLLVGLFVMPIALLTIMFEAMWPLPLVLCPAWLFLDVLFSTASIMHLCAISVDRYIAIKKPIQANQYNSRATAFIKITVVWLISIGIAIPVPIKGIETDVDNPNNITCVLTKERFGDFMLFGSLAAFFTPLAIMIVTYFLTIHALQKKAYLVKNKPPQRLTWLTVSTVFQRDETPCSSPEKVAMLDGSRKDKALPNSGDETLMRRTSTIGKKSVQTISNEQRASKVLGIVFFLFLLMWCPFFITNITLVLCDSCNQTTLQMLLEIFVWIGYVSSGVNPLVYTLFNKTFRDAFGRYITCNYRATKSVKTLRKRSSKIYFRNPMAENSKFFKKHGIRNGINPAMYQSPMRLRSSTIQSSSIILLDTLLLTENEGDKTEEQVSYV
Procedure: as §1

Sequence of 5-HT2A (P28223 whole entry): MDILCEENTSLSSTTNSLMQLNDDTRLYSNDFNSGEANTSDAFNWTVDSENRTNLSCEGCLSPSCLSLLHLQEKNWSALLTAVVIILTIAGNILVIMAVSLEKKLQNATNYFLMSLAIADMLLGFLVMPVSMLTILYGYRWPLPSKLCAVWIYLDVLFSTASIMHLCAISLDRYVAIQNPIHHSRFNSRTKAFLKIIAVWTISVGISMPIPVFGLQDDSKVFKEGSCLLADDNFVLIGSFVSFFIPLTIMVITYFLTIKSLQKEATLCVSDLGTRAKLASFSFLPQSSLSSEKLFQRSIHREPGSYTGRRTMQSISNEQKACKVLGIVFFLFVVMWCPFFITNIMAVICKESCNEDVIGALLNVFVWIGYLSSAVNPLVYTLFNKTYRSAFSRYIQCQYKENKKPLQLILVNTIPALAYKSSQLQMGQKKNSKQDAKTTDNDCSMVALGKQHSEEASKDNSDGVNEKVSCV

| Structure (SMILES) | pEC50 [1] | activation at 0.3 µM [1] [%] | activation at 30 µM [1] [%] | pEC50 [2] | activation at 0.3 µM [2] [%] | activation at 30 µM [2] [%] |
| --- | --- | --- | --- | --- | --- | --- |
| OC[C@@H]1CCCN1CCc1c[nH]c2ccccc12 [Compound 31, (S)-(1-(2-(1H-indol-3-yl)ethyl)pyrrolidin-2-yl)methanol] | 7.21 | 76.5 | 99.5 | 6.90 | 54.6 | 97 |
| C[C@H](O)[C@@H]1CCCN1CCc1c[nH]c2ccccc12 [Compound 73, (S)-1-((S)-1-(2-(1H-indol-3-yl)ethyl)pyrrolidin-2-yl)ethan-1-ol] | 6.25 | 61.9 | 101 | 6.02 | 61.2 | 104 |
| C[C@@]1(CO)CCCN1CCc1c[nH]c2ccccc12 [Compound 93, (S)-(1-(2-(1H-indol-3-yl)ethyl)-2-methylpyrrolidin-2-yl)methanol] | – | -11.3 | 1.82 | – | -0.54 | 25.6 |
| CC(C)OC(=O)[C@@H]1CCCN1CCc1c[nH]c2ccccc12 [Compound 55, isopropyl (2-(1H-indol-3-yl)ethyl)-L-prolinate] | 6.45 | 68.1 | 101 | 5.98 | 37.7 | 102 |
| OCC1CCCN1CCc1c(Cl)[nH]c2ccc(F)cc12 (stereo not drawn) [Compound 70, (1-(2-(2-chloro-5-fluoro-1H-indol-3-yl)ethyl)pyrrolidin-2-yl)methanol] | – | 61 | 97.7 | – | 55.1 | 99.8 |
| NCC1CCCN1CCc1c[nH]c2ccccc12 (stereo not drawn) [Compound 22] | – | 10.2 | 99 | – | 20 | 99.6 |
| OCC1CCCN1CCc1c(Br)[nH]c2ccc(F)cc12 (stereo not drawn) [Compound 69, (1-(2-(2-bromo-5-fluoro-1H-indol-3-yl)ethyl)pyrrolidin-2-yl)methanol] | – | 15.1 | 83.8 | – | 27.6 | 90.5 |
| COC(=O)[C@H]1CCCN1CCc1c[nH]c2ccccc12 [Compound 34, methyl (2-(1H-indol-3-yl)ethyl)-D-prolinate] | – | 4.6 | 29.9 | – | 1.34 | 35.1 |
| OC[C@@H]1CCCN1CCc1c[nH]c2ncccc12 [Compound 95, (S)-(1-(2-(1H-pyrrolo[2,3-b]pyridin-3-yl)ethyl)pyrrolidin-2-yl)methanol] | – | 0.81 | 84.3 | – | 1.09 | 9.66 |
| C[C@@H](O)[C@@H]1CCCN1CCc1c[nH]c2ccccc12 [Compound 75] | – | 23.4 | 87.3 | – | 5.88 | 80.2 |
| COC(=O)[C@@H]1CCCN1CCc1c[nH]c2ncccc12 [Compound 94, methyl (2-(1H-pyrrolo[2,3-b]pyridin-3-yl)ethyl)-L-prolinate] | – | 0.14 | 54.3 | – | -0.22 | 2.48 |
| COc1ccc2[nH]cc(CCN3CCC[C@H]3CO)c2c1 [Compound 50] | 7.90 | 100 | 103 | 8.06 | 101 | 101 |
| COC(=O)[C@@H]1CCCN1CCc1c[nH]c2ccccc12 [Compound 33, methyl (2-(1H-indol-3-yl)ethyl)-L-prolinate] | 6.09 | 44 | 94.4 | 6.34 | 33.9 | 91.3 |
| OCC1CCCN1CCc1c[nH]c2cccc(O)c12 (stereo not drawn) [Compound 29, 3-(2-(2-(hydroxymethyl)pyrrolidin-1-yl)ethyl)-1H-indol-4-ol] | – | 99.4 | 99.2 | – | 90.8 | 96.4 |
| OC[C@@H]1CCCN1CCc1c[nH]c2cccc(O)c12 [Compound 49, (S)-3-(2-(2-(hydroxymethyl)pyrrolidin-1-yl)ethyl)-1H-indol-4-ol] | 7.65 | 99.2 | 100 | 7.36 | 92 | 99.1 |
